The values that follow come from patent publication US20060040871A1, “Bacterial transforming agent” (priority 2003, published 2006).

Data set [1] relates to MRSA. The data set is described as follows: Antimicrobial plus BTA against recent clinical MRSA isolates (Table 7). Format: cell-based, Staphylococcus aureus. From the text:
The four clinical isolates were isolated from patients during the first three months of 2003. […] An intermediate MRSA has been included, as methicillin-resistance has been achieved by means other than production of PBP2a.

The subject of data set [2] is MRSA. The data set is described as follows: Screening on Isosensitest agar with incorporated BTA and 10 μg methicillin discs. In kind it is cell-based, Staphylococcus aureus. As for the experimental part:
To find substances related to GBE that might have increased potency, various substances, including those with additional glycine moieties and benzylates, have been screened. Screening was carried out using Isosensitest agar (Oxoid, UK) into which various levels of potential BTAs were incorporated at levels between 0.01 and 1.0%. The agar with incorporated BTA was then used in the manner of a standard antibiotic sensitivity test using 10 μg methicillin discs. The test organism was inoculated onto the agar surface at a concentration suitable to achieve confluent growth after 18 hours incubation at 30° C. After incubation, zone diameters were compared with that achieved by the control plate (Isosensitest alone) for each test organism.

For a further data set, the system named is VRE. In words: Antimicrobial plus BTA against VRE (Table 7). In kind it is cell-based, enterococci.
In another data set the test system is E. faecium. The settings on record: cited from earlier work.
For data set [3], the system named is MRSA with intermediate resistance to glycopeptides. In words: MIC of vancomycin or teicoplanin for MRSA with intermediate resistance to glycopeptides grown with GBE or NAGly (Table 4). In kind it is cell-based, Staphylococcus aureus. Particulars: for MIC: Staphylococcus aureus.
Data set [4] relates to glycopeptide-resistant enterococci. The settings on record: cited from earlier work.
The subject of data set [5] is vancomycin- and gentamicin-resistant Enterococcus faecium. The data set is described as follows: microbe, parasite or virus in culture. Format: cell-based. The settings on record: Enterococcus faecium, 0.0 (Control). The source says:
The agents of the present invention are not limited to the reversal of resistance in Staphylococcus. The test strains in Table 5 are patient-isolates of vancomycin- and gentamicin-resistant Enterococcus faecium. At the time of isolation, they were commonly resistant to all clinically useable antimicrobial agents.

Data set [6] has the same test system. In words: microbe, parasite or virus in culture. In kind it is cell-based. Particulars: ATCC29212, read-out: MIC of vancomycin, ATCC 29212 (vancomycin-sensitive reference strain), 0.0 (Control).
The test system of data set [7] is vancomycin-resistant enterococci (VRE). In words: Activity of BTAs against vancomycin-resistant enterococci. In kind it is cell-based.
The conditions of data set [8]: cited from earlier work.
The mark [9] stands for this setting: vanA, E. faecium and E. faecalis.

Like-named read-outs stand apart in the source and are kept apart here.

As to `CCOC(=O)CNC(=O)CN` [GGEE, Glycylglycine ethyl ester], the Oxacillin (antimicrobial plus BTA; quantity not named, MIC implied) amounted to 1.5 µg/mL with MRSA [1] (EMRSA-16, +BTA 0.01%); 1 µg/mL in the data set on MRSA [1] (EMRSA-16, +BTA 0.1%); 0.75 µg/mL with MRSA [1] (EMRSA-16, +BTA 1.0%); 3 µg/mL in the data set on MRSA [1] (EMRSA-17, +BTA 0.01%); 2 µg/mL in the data set on MRSA [1] (EMRSA-17, +BTA 0.1%); 1 µg/mL in the data set on MRSA [1] (EMRSA-17, +BTA 1.0%). Also, the Oxacillin (antimicrobial plus BTA; quantity not named, MIC implied) in the data set with MRSA [1] (I-MRSA, +BTA 0.01%) was found to be 1 µg/mL; in the data set on MRSA [1] (I-MRSA, +BTA 0.1%), 0.75 µg/mL; with MRSA [1] (I-MRSA, +BTA 1.0%) it was 0.32 µg/mL. Further, the Cephalexin (antimicrobial plus BTA; quantity not named, MIC implied) amounted to 1.5 µg/mL in the data set on MRSA [1] (EMRSA-16, +BTA 0.1%); 0.75 µg/mL in the data set on MRSA [1] (EMRSA-16, +BTA 1.0%); 2 µg/mL in the data set on MRSA [1] (EMRSA-17, +BTA 0.1%); 1 µg/mL in the data set with MRSA [1] (EMRSA-17, +BTA 1.0%); 0.75 µg/mL with MRSA [1] (I-MRSA, +BTA 0.1%); 0.38 µg/mL with MRSA [1] (I-MRSA, +BTA 1.0%). Moreover, the Vancomycin (antimicrobial plus BTA; quantity not named, MIC implied) with MRSA [1] (EMRSA-16, +BTA 1.0%) was 0.25 µg/mL; in the data set with MRSA [1] (EMRSA-17, +BTA 1.0%) it was 0.25 µg/mL; in the data set with MRSA [1] (I-MRSA, +BTA 1.0%), under 0.25 µg/mL; in the data set on VRE (+BTA 1.0%), 64 µg/mL. Also, the “activity against VRE and MRSA relative to glycylglycine benzyl ester” value in the data set on MRSA [2] (VRE and MRSA) is “greater activity”.

For the compound quinupristin/dalfopristin, in the data set with E. faecium, the “E. faecium isolates against which active (MIC≦2 mg/L)” value is listed as 86%.

With `CN[C@H](CC(C)C)C(=O)N[C@H]1C(=O)N[C@@H](CC(N)=O)C(=O)N[C@H]2C(=O)N[C@H]3C(=O)N[C@H](C(=O)N[C@H](C(=O)O)c4cc(O)cc(O)c4-c4cc3ccc4O)[C@H](O)c3ccc(c(Cl)c3)Oc3cc2cc(c3O[C@@H]2O[C@H](CO)[C@@H](O)[C@H](O)[C@H]2O[C@H]2C[C@](C)(N)[C@H](O)[C@H](C)O2)Oc2ccc(cc2Cl)[C@H]1O` [vancomycin], the Vancomycin (antimicrobial plus BTA; quantity not named, MIC implied) with MRSA [1] (EMRSA-16, vancomycin alone) is 1 µg/mL; with MRSA [1] (EMRSA-17, vancomycin alone), 2 µg/mL; with MRSA [1] (I-MRSA, vancomycin alone) it was 0.5 µg/mL; in the data set with VRE (vancomycin alone), over 256 µg/mL. Further, the MIC in data set [3] (MRSA / NCTC 12493, read-out: MIC of vancomycin, NCTC 12493, Control) is 0.5 µg/mL; in [3] (MRSA / NCTC 12493, read-out: MIC of vancomycin, reference strain NCTC 12493, as stated in text on Table 1), 2 µg/mL; in data set [3] (MRSA / VISA, read-out: MIC of vancomycin, L266 (first line), EMRSA-17 (VISA), Control), 8 µg/mL; in [3] (MRSA / VISA, read-out: MIC of vancomycin, L266 (second line), EMRSA-17 (VISA), Control) it was 8 µg/mL; in data set [5] (read-out: MIC of vancomycin, BBC) it was 32 µg/mL; in data set [5] (read-out: MIC of vancomycin, E254), 128 µg/mL. In addition, the MIC in data set [5] (read-out: MIC of vancomycin, E267) is 128 µg/mL; in [5] (read-out: MIC of vancomycin, E271), 64 µg/mL; in [5] (read-out: MIC of vancomycin, E285), 64 µg/mL; in data set [5] (read-out: MIC of vancomycin, E297), 128 µg/mL; in data set [5] (read-out: MIC of vancomycin, GBC), 64 µg/mL; in data set [5] (read-out: MIC of vancomycin, S226), 128 µg/mL. Moreover, the MIC in data set [5] (read-out: MIC of vancomycin, S227) came out at 128 µg/mL; in data set [5] (read-out: MIC of vancomycin, S283), 64 µg/mL; in data set [5] (read-out: MIC of vancomycin, S302) it was 64 µg/mL; in data set [5] (read-out: MIC of vancomycin, S315), 64 µg/mL; in data set [5] (read-out: MIC of vancomycin, S317), 128 µg/mL; in data set [5] (read-out: MIC of vancomycin, S319) it was 64 µg/mL. Besides, the MIC was found to be 64 µg/mL in data set [5] (read-out: MIC of vancomycin, S333); 32 µg/mL in data set [5] (read-out: MIC of vancomycin, S337); 64 µg/mL in data set [5] (read-out: MIC of vancomycin, S393); 64 µg/mL in data set [5] (read-out: MIC of vancomycin, S497); 64 µg/mL in data set [5] (read-out: MIC of vancomycin, S556); 64 µg/mL in data set [5] (read-out: MIC of vancomycin, WBC). For the same compound, in [6], the MIC worked out at 2 µg/mL. The “level of vancomycin to which resistance is conferred” value in data set [4] (setting [9]) is at least 256 mg/L; in data set [4] (vanE, E. faecalis) it was 16 mg/L.

Take `Nc1ccc(C(=O)NCC(=O)O)cc1` [Amino-HA, P-Amino Hippuric acid]: the Cephalexin (antimicrobial plus BTA; quantity not named, MIC implied) with MRSA [1] (EMRSA-16, +BTA 0.01%) came out at 3 µg/mL; in the data set with MRSA [1] (EMRSA-16, +BTA 0.1%), 1 µg/mL; in the data set with MRSA [1] (EMRSA-17, +BTA 0.01%) it was 6 µg/mL; in the data set with MRSA [1] (EMRSA-17, +BTA 0.1%), 4 µg/mL; in the data set with MRSA [1] (I-MRSA, +BTA 0.01%), 1.5 µg/mL; in the data set on MRSA [1] (I-MRSA, +BTA 0.1%) it was 0.064 µg/mL. The Oxacillin (antimicrobial plus BTA; quantity not named, MIC implied) in the data set on MRSA [1] (EMRSA-16, +BTA 0.01%) stood at 3 µg/mL; in the data set with MRSA [1] (EMRSA-16, +BTA 0.1%), 0.75 µg/mL; in the data set with MRSA [1] (EMRSA-17, +BTA 0.01%), 6 µg/mL; in the data set on MRSA [1] (EMRSA-17, +BTA 0.1%), 1 µg/mL; in the data set on MRSA [1] (I-MRSA, +BTA 0.01%), 1.5 µg/mL; with MRSA [1] (I-MRSA, +BTA 0.1%), 0.064 µg/mL. Moreover, the Vancomycin (antimicrobial plus BTA; quantity not named, MIC implied) in the data set with MRSA [1] (EMRSA-16, +BTA 0.1%) was 0.25 µg/mL; in the data set on MRSA [1] (EMRSA-17, +BTA 0.1%), 0.25 µg/mL; in the data set on MRSA [1] (I-MRSA, +BTA 0.1%) it was under 0.25 µg/mL; with VRE (+BTA 0.1%), 64 µg/mL. Further, in the data set on MRSA [2], the “activity relative to Hippuric acid and GBE” value was “improved activity”.

For N-carbamoylglycine (Hydantoic acid), the “activity against vancomycin-resistant enterococci (VRE)” value in data set [7] is “low-level active”.

Regarding teicoplanin, the MIC of teicoplanin in data set [3] (L265, EMRSA-16 (TISA), Control) came out at 32 µg/mL; in data set [3] (L266, EMRSA-16 (TISA), Control) it was 8 µg/mL; in [3] (NCTC 12493, Control), 0.25 µg/mL. The “level of teicoplanin to which resistance is conferred” value in data set [4] (setting [9]) was at least 32 mg/L; in data set [4] (vanB), at most 1.0; in data set [4] (vanC1, vanC2, vanC3), at most 1.0; in data set [4] (vanE, E. faecalis) it was 0.5 mg/L. Besides, the half life in data set [8] is 12 h.

For the compound `O=C(O)CNC(=O)c1ccccc1` [HA, Hippuric acid (N-Benzoylglycine)], the Oxacillin (antimicrobial plus BTA; quantity not named, MIC implied) with MRSA [1] (EMRSA-16, +BTA 0.01%) was 6 µg/mL; in the data set with MRSA [1] (EMRSA-16, +BTA 0.1%) it was 4 µg/mL; in the data set with MRSA [1] (EMRSA-17, +BTA 0.01%) it was 8 µg/mL; in the data set on MRSA [1] (EMRSA-17, +BTA 0.1%), 4 µg/mL; with MRSA [1] (I-MRSA, +BTA 0.01%), 4 µg/mL; with MRSA [1] (I-MRSA, +BTA 0.1%), 2 µg/mL. Also, the Cephalexin (antimicrobial plus BTA; quantity not named, MIC implied) with MRSA [1] (EMRSA-16, +BTA 0.1%) stood at 6 µg/mL; in the data set with MRSA [1] (EMRSA-17, +BTA 0.1%) it was 8 µg/mL; in the data set on MRSA [1] (I-MRSA, +BTA 0.1%) it was 2 µg/mL. Moreover, the Vancomycin (antimicrobial plus BTA; quantity not named, MIC implied) with MRSA [1] (EMRSA-16, +BTA 0.1%) is 0.25 µg/mL; in the data set with MRSA [1] (EMRSA-17, +BTA 0.1%), 0.25 µg/mL; with MRSA [1] (I-MRSA, +BTA 0.1%), under 0.25 µg/mL; in the data set with VRE (+BTA 0.1%), 64 µg/mL.
